Experimental findings from the supplement of paper PMC11208160 are described below.

The nature of this data set: recombinant UMI read abundance after kanamycin selection (control-corrected) (log10(CPM+1)); higher = more efficient recombination; extreme values may be limits of the assay; sequences stand for … in AGTGCAGAGAAAATCGGCCAGTTTTCTCTGCCTGCAGTCCGCATGCCGTGGGACCCCTTGGGTTCTAACCTGTTGCCTAGATTTATGCAGCGGACTGCCTTTCTCCCAAAGTGATAAACCGG…AGGTTGGTTTCACT; site = the 11-nt donor. Here is the method:
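Pooled E. coli donor-specificity screen for the IS621 bridge recombinase. Each library member carries a reprogrammed 11-nt donor and a full-length LE bridge RNA expressed in cis from the natural promoter, with a paired donor-binding loop (8-nt LDG + 4-nt RDG) and a target-binding loop fixed to T5. It is co-electroporated with a T5 target plasmid; recombinase is induced with 0.07 mM IPTG and recombinants are selected on kanamycin. UMIs are counted as CPM, averaged over two biological replicates and corrected by the unselected control. Molecule = full bridge RNA written as DNA, built from the T5 scaffold: LDG = donor specificity nt 1-8, RDG = reverse complement of nt 8-11.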
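Note: IS621 bridge recombinase in Escherichia coli cells against a fixed T5 target plasmid.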

On to “ACATCGACATGGACCGGTTTTCCCGGTAATCCGTATTTGTG (site ACATCCACTCA)”, for which the “recombinant UMI read abundance (log10)” value was 0.0171.

Take “ACATCGACATGGACCGGTTTTCCCGGTAATCCGTATTTGTG (site ACATCGACTCA)”: the “recombinant UMI read abundance (log10)” value was 0.245.

For the sequence “ACATCGACATGGACCGGTTTTCCCGGTAATCCGTATTTGTG (site ACATCTACTCA)”, the “recombinant UMI read abundance (log10)” value came to 0.00913.

Consider “ACATCTACATGGACCGGTTTTCCCGGTAATCCGTATTTGAG (site ACATCTACTCA)”, for which the “recombinant UMI read abundance (log10)” value came out at 0.0306.

Take “ACATCTACATGGACCGGTTTTCCCGGTAATCCGTATTTGAG (site ACATCTACTCC)”: the “recombinant UMI read abundance (log10)” value was determined as 0.184.

As for “ACATCTACATGGACCGGTTTTCCCGGTAATCCGTATTTGAG (site ACATCTACTCG)”, the “recombinant UMI read abundance (log10)” value was found to be 0.0217.

As for “ACATCTACATGGACCGGTTTTCCCGGTAATCCGTATTTGAG (site ACATCTACTCT)”, the “recombinant UMI read abundance (log10)” value was found to be 1.67.

With “ACATCTACATGGACCGGTTTTCCCGGTAATCCGTATTTGTA (site ACATCTACTAA)”, the “recombinant UMI read abundance (log10)” value was 0.0109.

On to “ACATCTACATGGACCGGTTTTCCCGGTAATCCGTATTTGTA (site ACATCTACTCA)”, for which the “recombinant UMI read abundance (log10)” value was determined as 0.0123.

Take “ACATCTACATGGACCGGTTTTCCCGGTAATCCGTATTTGTA (site ACATCTACTGA)”: the “recombinant UMI read abundance (log10)” value stood at 0.

For the sequence “ACATCTACATGGACCGGTTTTCCCGGTAATCCGTATTTGTA (site ACATCTACTTA)”, the “recombinant UMI read abundance (log10)” value came to 0.989.

Turning to “ACATCTCCATGGACCGGTTTTCCCGGTAATCCGTATTTGTG (site ACATCTACTCA)”, the “recombinant UMI read abundance (log10)” value came to 0.0166.

Turning to “ACATCTCCATGGACCGGTTTTCCCGGTAATCCGTATTTGTG (site ACATCTCCTCA)”, the “recombinant UMI read abundance (log10)” value was found to be 0.00967.

Take “ACATCTCCATGGACCGGTTTTCCCGGTAATCCGTATTTGTG (site ACATCTGCTCA)”: the “recombinant UMI read abundance (log10)” value is 0.0416.

As to “ACATCTCCATGGACCGGTTTTCCCGGTAATCCGTATTTGTG (site ACATCTTCTCA)”, the “recombinant UMI read abundance (log10)” value was found to be 0.00664.

Take “ACATCTTCATGGACCGGTTTTCCCGGTAATCCGTATTTGTG (site ACATCTACTCA)”: the “recombinant UMI read abundance (log10)” value worked out at 0.0158.

On to “ACATCTTCATGGACCGGTTTTCCCGGTAATCCGTATTTGTG (site ACATCTCCTCA)”, for which the “recombinant UMI read abundance (log10)” value came out at 0.0151.

In the case of “ACATCTTCATGGACCGGTTTTCCCGGTAATCCGTATTTGTG (site ACATCTGCTCA)”, the “recombinant UMI read abundance (log10)” value stood at 0.

As for “ACATCTTCATGGACCGGTTTTCCCGGTAATCCGTATTTGTG (site ACATCTTCTCA)”, the “recombinant UMI read abundance (log10)” value stood at 0.969.

Consider “ACATGAACATGGACCGGTTTTCCCGGTAATCCGTATTTGAC (site ACATGAACTGT)”, for which the “recombinant UMI read abundance (log10)” value was found to be 2.71.

For “ACATGATCATGGACCGGTTTTCCCGGTAATCCGTATTTGCA (site ACAGTATCTTG)”, the “recombinant UMI read abundance (log10)” value was determined as 1.14.

In the case of “ACATGATCATGGACCGGTTTTCCCGGTAATCCGTATTTGCA (site ACATGATCTTG)”, the “recombinant UMI read abundance (log10)” value was 2.74.

For “ACATGCGCATGGACCGGTTTTCCCGGTAATCCGTATTTGGT (site ACATGCGCTAC)”, the “recombinant UMI read abundance (log10)” value is 1.02.

Take “ACATTACCATGGACCGGTTTTCCCGGTAATCCGTATTTGGA (site ACATTACCTTC)”: the “recombinant UMI read abundance (log10)” value stood at 0.

For “ACATTATCATGGACCGGTTTTCCCGGTAATCCGTATTTGAA (site ACAGTATCTTG)”, the “recombinant UMI read abundance (log10)” value turned out to be 0.

Regarding “ACATTATCATGGACCGGTTTTCCCGGTAATCCGTATTTGAA (site ACATTATCTTT)”, the “recombinant UMI read abundance (log10)” value was determined as 2.38.

Consider “ACATTGCCATGGACCGGTTTTCCCGGTAATCCGTATTTGGG (site ACATTGCCTCC)”, for which the “recombinant UMI read abundance (log10)” value stood at 0.0159.

In the case of “ACATTGGCATGGACCGGTTTTCCCGGTAATCCGTATTTGTT (site ACATTGGCTAA)”, the “recombinant UMI read abundance (log10)” value was determined as 1.53.

For “ACCAATTCATGGACCGGTTTTCCCGGTAATCCGTATTTGCC (site ACCAATTCTGG)”, the “recombinant UMI read abundance (log10)” value came out at 2.25.

Consider “ACCAATTCATGGACCGGTTTTCCCGGTAATCCGTATTTGCC (site CCCAATTCTGG)”, for which the “recombinant UMI read abundance (log10)” value was determined as 1.91.

“ACCAATTCATGGACCGGTTTTCCCGGTAATCCGTATTTGCC (site GCCAATTCTGG)”: the “recombinant UMI read abundance (log10)” value is 0.507.

With “ACCAATTCATGGACCGGTTTTCCCGGTAATCCGTATTTGCC (site TCCAATTCTGG)”, the “recombinant UMI read abundance (log10)” value turned out to be 0.66.

Regarding “ACCAGAACATGGACCGGTTTTCCCGGTAATCCGTATTTGAG (site ACAAGAACTCT)”, the “recombinant UMI read abundance (log10)” value was 0.

On to “ACCAGAACATGGACCGGTTTTCCCGGTAATCCGTATTTGAG (site ACCAGAACTCT)”, for which the “recombinant UMI read abundance (log10)” value was 2.19.

For the sequence “ACCAGAACATGGACCGGTTTTCCCGGTAATCCGTATTTGAG (site ACGAGAACTCT)”, the “recombinant UMI read abundance (log10)” value was found to be 0.

On to “ACCAGAACATGGACCGGTTTTCCCGGTAATCCGTATTTGAG (site ACTAGAACTCT)”, for which the “recombinant UMI read abundance (log10)” value is 0.155.

Take “ACCAGCTCATGGACCGGTTTTCCCGGTAATCCGTATTTGTC (site ACCAGCTCTGA)”: the “recombinant UMI read abundance (log10)” value came out at 2.47.

“ACCATATCATGGACCGGTTTTCCCGGTAATCCGTATTTGTC (site ACCATATCTGA)”: the “recombinant UMI read abundance (log10)” value worked out at 2.03.

With “ACCATATCATGGACCGGTTTTCCCGGTAATCCGTATTTGTC (site CCCATATCTGA)”, the “recombinant UMI read abundance (log10)” value was determined as 0.

For “ACCATATCATGGACCGGTTTTCCCGGTAATCCGTATTTGTC (site GCCATATCTGA)”, the “recombinant UMI read abundance (log10)” value was 0.

For the sequence “ACCATATCATGGACCGGTTTTCCCGGTAATCCGTATTTGTC (site TCCATATCTGA)”, the “recombinant UMI read abundance (log10)” value was 0.

For the sequence “ACCCAATCATGGACCGGTTTTCCCGGTAATCCGTATTTGGA (site ACCCAATCTTC)”, the “recombinant UMI read abundance (log10)” value is 2.04.

In the case of “ACCCACACATGGACCGGTTTTCCCGGTAATCCGTATTTGTA (site ACCCACACTTA)”, the “recombinant UMI read abundance (log10)” value amounted to 1.92.

“ACCCACACATGGACCGGTTTTCCCGGTAATCCGTATTTGTA (site CCCCACACTTA)”: the “recombinant UMI read abundance (log10)” value was found to be 0.963.

In the case of “ACCCACACATGGACCGGTTTTCCCGGTAATCCGTATTTGTA (site GCCCACACTTA)”, the “recombinant UMI read abundance (log10)” value came out at 0.0193.

As for “ACCCACACATGGACCGGTTTTCCCGGTAATCCGTATTTGTA (site TCCCACACTTA)”, the “recombinant UMI read abundance (log10)” value was found to be 0.408.

As to “ACCCATTCATGGACCGGTTTTCCCGGTAATCCGTATTTGGA (site ACCCATTCTTC)”, the “recombinant UMI read abundance (log10)” value came to 1.53.

On to “ACCCCAACATGGACCGGTTTTCCCGGTAATCCGTATTTGGT (site ACCCCAACTAC)”, for which the “recombinant UMI read abundance (log10)” value is 0.756.

Consider “ACCCCATCATGGACCGGTTTTCCCGGTAATCCGTATTTGAT (site ACCCCATCTAT)”, for which the “recombinant UMI read abundance (log10)” value turned out to be 1.23.

Regarding “ACCCCGACATGGACCGGTTTTCCCGGTAATCCGTATTTGTG (site ACCCCGACTCA)”, the “recombinant UMI read abundance (log10)” value stood at 0.965.

Consider “ACCCCTACATGGACCGGTTTTCCCGGTAATCCGTATTTGAA (site ACCCCTACTTT)”, for which the “recombinant UMI read abundance (log10)” value was 1.06.

Take “ACCCGCTCATGGACCGGTTTTCCCGGTAATCCGTATTTGCA (site ACCCGCTCTTG)”: the “recombinant UMI read abundance (log10)” value is 2.9.

For “ACCCTCACATGGACCGGTTTTCCCGGTAATCCGTATTTGTA (site ACCCTCACTTA)”, the “recombinant UMI read abundance (log10)” value came out at 0.59.

As to “ACCCTTACATGGACCGGTTTTCCCGGTAATCCGTATTTGAG (site ACCCTTACTCT)”, the “recombinant UMI read abundance (log10)” value is 1.66.

Consider “ACCCTTTCATGGACCGGTTTTCCCGGTAATCCGTATTTGAC (site AACCTTTCTGT)”, for which the “recombinant UMI read abundance (log10)” value was determined as 0.

With “ACCCTTTCATGGACCGGTTTTCCCGGTAATCCGTATTTGAC (site ACCCTTTCTGT)”, the “recombinant UMI read abundance (log10)” value was 0.

As for “ACCCTTTCATGGACCGGTTTTCCCGGTAATCCGTATTTGAC (site AGCCTTTCTGT)”, the “recombinant UMI read abundance (log10)” value was determined as 0.

As for “ACCCTTTCATGGACCGGTTTTCCCGGTAATCCGTATTTGAC (site ATCCTTTCTGT)”, the “recombinant UMI read abundance (log10)” value is 0.

On to “ACCGAGACATGGACCGGTTTTCCCGGTAATCCGTATTTGGG (site ACCAAGACTCC)”, for which the “recombinant UMI read abundance (log10)” value turned out to be 0.109.

Turning to “ACCGAGACATGGACCGGTTTTCCCGGTAATCCGTATTTGGG (site ACCCAGACTCC)”, the “recombinant UMI read abundance (log10)” value was 0.0111.

With “ACCGAGACATGGACCGGTTTTCCCGGTAATCCGTATTTGGG (site ACCGAGACTCC)”, the “recombinant UMI read abundance (log10)” value was 0.621.

For the sequence “ACCGAGACATGGACCGGTTTTCCCGGTAATCCGTATTTGGG (site ACCTAGACTCC)”, the “recombinant UMI read abundance (log10)” value came to 0.

With “ACCGAGCCATGGACCGGTTTTCCCGGTAATCCGTATTTGAT (site ACCGAGCCTAT)”, the “recombinant UMI read abundance (log10)” value was 1.13.

For the sequence “ACCGATACATGGACCGGTTTTCCCGGTAATCCGTATTTGAA (site ACCGATACTTT)”, the “recombinant UMI read abundance (log10)” value came to 1.6.

Turning to “ACCGCTACATGGACCGGTTTTCCCGGTAATCCGTATTTGCC (site ACCGCTACTGG)”, the “recombinant UMI read abundance (log10)” value is 1.75.
